Measurements: patent US20260297031A1, “HYDROXYLAMINE-BASED BCR-ABL1 INHIBITORS FOR TREATMENT OF CANCER” (University of Georgia Research Foundation, Inc., priority 2023, published 2026)
In brackets after ≈: the same amount, converted by molar mass. Entries after “also recorded” stand apart in the source; their conditions may differ.

Tests used:
[1] = Plasma protein binding by equilibrium dialysis, human plasma; format: in vitro ADME
Protocol: (§1) Plasma Protein Binding by Equilibrium Dialysis (Independently Performed by Pharmaron Inc., Ninqbo, CN)
(§2) Initially, 1 mM solutions of test compounds and the control compound (Ketoconzaole) were prepared in DMSO. After this, dialysis membranes were soaked in ultrapure water for 60 min to separate strips, followed by 20% aq. ethanol for 20 min, and finally in a dialysis buffer for 20 min. […] After this, 597 μL of blank plasma solution followed by 3 μL of the working solutions of either test compounds or control compound were added to a new plastic plate or separate plastic tube and the solutions were vortexed at 1,000 rpm for 2 min. Immediately after this, 50 μL of spiked plasma solution suspension was transferred to a 96-well plate to act as T=0 control. The remaining samples were treated in the same manner, whereby all remaining spiked plasma solutions were added to the incubator for the duration of the study.
(§3) Cells were then loaded with 120 μL of the plasma samples and dialyzed against an equal volume of dialysis buffer (PBS). […] At the end of incubation, the lid was removed and 50 μL of post-dialysis samples were removed from both buffer and plasma solution chambers into a separate 96-well plate for analysis. The plasma solutions (50 μL) were then added to the buffer samples along with an equal volume of PBS (50 μL) to the collected plasma solution samples. The plate was shaken at 1,000 rpm for 2 min and 400 μL of acetonitrile containing an appropriate internal standard was added to precipitate protein and release compound. The samples were then vortexed at 1,000 rpm for an additional 10 min followed by centrifugation at 3,220 g for 30 min. Supernatant (250 μL) was then added to a new 96-well plate and centrifuged again at 3,220 g for 30 min and 100 μL of this supernatant was then added to a new 96-well plate for analysis. The samples were analyzed by LC-MS/MS and 100 μL of distilled water was added to each sample prior to analysis.
(§4) Concentrations of test compounds and control compound in buffer and plasma solution chambers was determined and percentages of test compounds and control compound bound using the following equations (mean of n=2 replicates): […]

[2] = LogD7.4 by shake flask method; conditions: octanol/phosphate buffer, pH 7.4
Protocol: Test compounds and control compound (Nicardipine) were initially prepared as 10 mM solutions in DMSO and 5 μL of each sample solution was placed into one 96-well plate. […] From the octanol buffer phase, 5 μL was transferred to a new 96-well plate followed by addition of 495 μL of a 1:1 (v/v) mixture of H2O and acetonitrile to yield 100-fold diluted samples. […] Diluted samples were then vortexed for 5 min at 1,000 rpm. 50 μL of buffer samples were then transferred to a new 96-well plate, followed by addition of 450 μL of a 1:1 (v/v) mixture of H2O and acetonitrile mixture containing internal standard yielding 10-fold diluted buffer samples. Samples were vortexed for 5 min at 1,000 rpm and then all samples underwent analysis by LC-MS/MS.

[3] = Plasma protein binding by equilibrium dialysis, rat plasma; format: in vitro ADME
Protocol: as §1, §2
as §3, with “Supernatant (250 μL) was then added to a new 96-well plate and centrifuged again at 3,220 g for 30 min and 100 μL of this supernatant was then added to a new 96-well plate for analysis.” left out
as §4

Molt-4 cells = assay: In vitro CTG antiproliferative assay, Molt-4; format: cell-based; conditions: for IC50: Homo sapiens, Molt-4 (BCR-ABL1−), 72 h
Protocol: (§5) In Vitro CTG Assay (Independently Performed By: Crown Bioscience, Taicanq, CN)
(§6) Cells listed in the table above were initially harvested during logarithmic growth period followed by re-suspension and counting using a Vi cell counter (cell viability was measured by trypan blue exclusion assay). Cells were then diluted and 90 μL cell suspensions were added to 96-well plates. Plates were then incubated overnight in a humidified incubator at 37° C. with 5% CO2. To(Time 0) plate was then taken by 10 μL of culture medium being added to each well followed by 50 μL CellTiter-Glo® Reagent being added. The contents were then mixed for 2 min on an orbital shake to facilitate cell lysis. Next, the plate was incubated at room temperature for 10 min to stabilize luminescent signal. Blackseal black sticker was placed to the bottom of each plate and the luminescence was recorded using EnVision multi label reader. Test compounds and 10 μL of each 10× compound working solutions was added according to the plate inoculation map. Plates were then placed back into the incubator and after 72 h, 50 μL CellTiter-Glo® was added to each well. Contents were then mixed for 2 min on an orbital shaker to facilitate cell lysis. The plate then was incubated at room temperature for 10 min to stabilize luminescent signal. Blackseal black sticker was placed to the bottom of each plate and the luminescence recorded using EnVision multi label reader.
Relative IC50 was calculated with a dose-response curve fitted using nonlinear regression model with a sigmoidal dose response on GraphPad Prism version 9.5.1. […] The formula for calculating survival rate was (n=3 replicates): […]

[4] = test system: P-glycoprotein (P-gp) and/or breast cancer resistance protein (BCRP); conditions: cited from earlier work
[5] = Metabolic stability in rat liver microsomes; format: in vitro ADME; conditions: rat
Protocol: (§7) Metabolic Stability in Liver Microsomes (Independently Performed by Pharmaron Inc., Ninqbo, CN)
(§8) This experiment was carried out under two separate set of conditions: i) with Cofactors (NADPH), which consisted of adding 25 μL of 10 mM NADPH to the incubations, giving a final NADPH concentration of 1 mM, and ii) without Cofactors (NADPH), which consisted of adding 25 μL of 100 mM phosphate buffer to the incubations. Under both sets of conditions, the final concentration of microsomes were 0.5 mg/mL. […] Samples were then centrifuged at 3,220 g for 40 min and aliquots of 100 μL of the supernatant were mixed with 100 μL of ultra-pure H2O and analyzed by LC-MS/MS.
(§9) Peak areas were determined from extracted ion chromatograms. The slope value, k, was determined by linear regression of the natural logarithm of the remaining percentage of the parent drug vs incubation time curve.

[6] = Metabolic stability in human liver microsomes; format: in vitro ADME; conditions: human
Protocol: as §7, §8, §9

K562 cells = assay: Cell viability assay, K562; format: cell-based
[7] = Metabolic stability in human hepatocytes
Protocol: Metabolic Stability in Hepatocytes (Independently Performed by Pharmaron Inc., Ninqbo, CN)
After thawing was complete, hepatocytes were transferred into a 50 mL conical tube containing thawing medium and the tube was then placed into a centrifuge and spun at 100 g for 10 min. […] Using AO/PI staining, cells were counted to determine the viable cell density. […] Subsequently, 2 μL of the 100 μM test compounds or control compound solutions was transferred into the respective wells of the 96-well non-coated plate to start the reaction. […] Aliquots of 100 μL of the supernatant were then diluted by 100 μL of ultra-pure water, and the mixture was analyzed by LC-MS/MS.
All calculations were carried out using Microsoft Excel. Peak areas were determined from extracted ion chromatograms. The in-vitro half-life (t1/2) of parent compound was determined by regression of the percent parent disappearance vs. time curve.

[8] = Metabolic stability in rat hepatocytes; format: in vitro ADME; conditions: rat
Protocol: All calculations were carried out using Microsoft Excel. Peak areas were determined from extracted ion chromatograms.

Aqueous solubility = conditions: phosphate buffer, pH 7.4, aqueous buffer
Protocol: Solubility Determinations (Independently Performed by Pharmaron Inc., Ninqbo, CN)
Test compounds and control compounds (progesterone or diclofenac) were initially prepared as 10 mM DMSO stock solutions. […] After such time, plugs and stir sticks were removed and the samples from the solubility sample plate were transferred into the filter plate. All the samples were then filtered and 5 μL of filtrate was taken and added along with 5 μL of DMSO and 490 μL of a 1:1 (v/v) mixture of H2O and acetonitrile containing internal standard (100 nM alprazolam, 200 nM Caffeine and 100 nM tolbutamide) to the plate yielding a final concentration of 3 μM. The samples were then analyzed by LC-MS and diluted according to the peak shape with ultrapure water.
Filtrate was analyzed and quantified against a standard of known concentration using LC coupled with MS peak identification and quantitation. Solubility values of test compounds and progesterone were calculated as follows and are presented as the mean of n=2 replicates: […]

MEG-01 cells = assay: In vitro CTG antiproliferative assay, MEG-01; format: cell-based; conditions: MEG-01, 72 h
Protocol: as §5
as §6, with “Plates were then placed back into the incubator and after 72 h, 50 μL CellTiter-Glo® was added to each well. Contents were then mixed for 2 min on an orbital shaker to facilitate cell lysis. The plate then was incubated at room temperature for 10 min to stabilize luminescent signal.” left out
Relative IC50 was calculated with a dose-response curve fitted using nonlinear regression model with a sigmoidal dose response on GraphPad Prism version 9.5.1. […]

KU812 cells = assay: In vitro CTG antiproliferative assay, KU812; format: cell-based; conditions: KU812, 72 h
Protocol: (§10) Cells listed in the table above were initially harvested during logarithmic growth period followed by re-suspension and counting using a Vi cell counter (cell viability was measured by trypan blue exclusion assay). Cells were then diluted and 90 μL cell suspensions were added to 96-well plates. […] To(Time 0) plate was then taken by 10 μL of culture medium being added to each well followed by 50 μL CellTiter-Glo® Reagent being added. The contents were then mixed for 2 min on an orbital shake to facilitate cell lysis. Next, the plate was incubated at room temperature for 10 min to stabilize luminescent signal. Blackseal black sticker was placed to the bottom of each plate and the luminescence was recorded using EnVision multi label reader. Test compounds and 10 μL of each 10× compound working solutions was added according to the plate inoculation map. […] Contents were then mixed for 2 min on an orbital shaker to facilitate cell lysis. The plate then was incubated at room temperature for 10 min to stabilize luminescent signal. Blackseal black sticker was placed to the bottom of each plate and the luminescence recorded using EnVision multi label reader.

CHO-K1 cells = conditions: +/− S9; 0.2-500 μM
Text: High content analysis and fluorescent image analysis were used to detect micronuclei. Cyclophosphamide was the positive control in the presence of metabolic activation by rat liver S9 and mitomycin C was the positive control without metabolic activation by rat liver S9.

BCR-ABL1 T315I = molecular target: T1, BCR-ABL1 T315I (Homo sapiens, UniProt P00519, T315I); assay: KinaseProfiler radiometric kinase assay, BCR-ABL1 T315I; format: biochemical; conditions: gatekeeper mutation
T1 construct: BCR (fusion partner, as the printed name BCR-ABL1 says)

mutant BCR-ABL1 = assay: KinaseProfiler radiometric kinase assay, mutant BCR-ABL1 kinases as a group; format: biochemical, human; conditions: read-out: IC50 against (imatinib resistant / relevant) mutant BCR-ABL1 kinases; group of mutants
Text: Biochemical Human RTK Kinase Enzymatic Radiometric Assay, KinaseProfiler (Independently Performed by Eurofins Cerep SA, FR)

SUP-B15 cells = assay: In vitro CTG antiproliferative assay, SUP-B15; format: cell-based; conditions: SUP-B15, 72 h
Protocol: as §10

## COc1cc(Nc2c(C#N)cnc3cc(OCCCN4CCN(C)CC4)c(OC)cc23)c(Cl)cc1Cl [Bosutinib, bosutinib, reference compound]
[1]; human
  plasma protein binding, in words: comparable unbound plasma protein fraction
[1]; human plasma, 360 min, 5 µM
  % Bound: 95.47%
  % Unbound: 4.52%
[1]; human, 5 μM, 360 min
  fu, plasma %: 4.5%
[2]
  logD: 3.1
[3]
  plasma protein binding, in words: comparable unbound plasma protein fraction
[3]; 5 μM, 360 min
  fu, plasma %: 7.2%
Molt-4 cells
  IC50: > 2000 nM
[4]
  efflux transporter substrate (background): P-gp substrates; also recorded: potent substrates for efflux transporters
[5]
  stability in liver microsomes, in words: significant degradation
[6]
  stability in liver microsomes, in words: significant degradation
K562 cells
  antiproliferative activity, in words: picomolar activity
[7]
  stability in hepatocytes, in words: comparably enhanced stability
[7]; hepatocytes
  remaining at 0.5 min: 100%
  remaining at 0.5 h: 79.3%
  remaining at 1 h: 54%
  remaining at 2 h: 20.7%
[8]
  stability in hepatocytes, in words: comparably enhanced stability
Aqueous solubility
  solubility kinetic at 2 h: 14 µM (≈ 7.43 µg/mL)

## COc1cc(Nc2c(C#N)cnc3cc(OCCON4CCN(C)CC4)c(OC)cc23)c(Cl)cc1Cl [Compound 7, 4-((2,4-dichloro-5-methoxyphenyl)amino)-6-methoxy-7-(2-((4-methylpiperazin-1-yl)oxy)ethoxy)quinoline-3-carbonitrile]
MEG-01 cells
  antiproliferative activity, in words: potent antiproliferative activity; also recorded: excellent antiproliferative activity
KU812 cells
  antiproliferative activity, in words: potent antiproliferative activity; also recorded: excellent antiproliferative activity
CHO-K1 cells
  Micronucleus result: neither mutagenic nor genotoxic; also recorded: Negative
Molt-4 cells
  IC50: > 2000 nM
Molt-4 cells; Molt-4, 72 h
  antiproliferative activity, in words: minimal activity
BCR-ABL1 T315I
  activity against BCR-ABL1 T315I, in words: slightly reduced activity
Mutant BCR-ABL1
  IC50: < 1 nM
SUP-B15 cells
  antiproliferative activity, in words: reduced activity
